{"source": "patent US20080095826A1", "about": "“Method of Increasing Peripheral Blood Lymphocytes” (priority 2006, published 2008)", "format_in_all_cases": "in vivo, human", "key": {"[1]": {"test_system": "Hospitalized elderly test subjects", "assay": "Rice gruel with monosodium glutamate monohydrate fed to hospitalized elderly for 2 months; blood indices, eating ratio", "settings": "Friedman test, p<0.05, FIG. 1", "experimental": "Monosodium glutamate monohydrate was added to rice gruel to 0.5 wt %.\nHospitalized elderly test subjects (n=11 (2 males, 9 females), average age of 85.8±8.2, average body weight of 39.7±5.7 kg), were fed the above-mentioned rice gruel with glutamic acid 3 times a day for 2 months, establishing a continuous administration of 0.8 g on average of monosodium glutamate monohydrate per meal.\nFrom 1 month before the start of administration to 2 months after the start of administration, the eating ratio (ratio of weight of food actually eaten to weight of provided food) was measured. Blood samples were collected early in the morning immediately before the start of administration, 1 month after the start of adminstration, 2 months after the start of administration, and 1 month after the completion of administration, and the blood indices were measured. In addition, the body weight was measured."}, "[2]": {"test_system": "Hospitalized elderly test subjects", "assay": "Assessment of general condition by a nurse or care assistant (Table 2)", "experimental": "(§1) In the test of Example 1, the test subject was assessed by a nurse or a care assistant for the improvement of the general condition between immediately before the start of the administration of the rice gruel containing a salt of glutamic acid e and 2 months thereafter. The test subjects took the Hasegawa Dementia Scale-Revised for the following 9 items immediately before the administration and 2 months thereafter."}, "[3]": {"test_system": "Hospitalized elderly test subjects", "assay": "Hasegawa Dementia Scale-Revised", "settings": "before vs 2 months after intake; particularly for the items relating to speech; FIG. 3", "experimental": "as §1\n2. what year, what month, what date, what day of the week?\n5. continue to subtract 7 from 100\n6. say numbers in reverse order\n7. read out from memory of item 4\n9. say name of vegetables."}, "[4]": {"settings": "of 11 test subjects, before vs 2 months after start of administration"}}, "note": "Where “and” joins values, the source holds several entries; their conditions need not be identical. Equal values may be shown once."}
{"smiles": "N[C@@H](CCC(=O)O)C(=O)[O-].O.[Na+]", "note": "[monosodium glutamate monohydrate, Monosodium glutamate monohydrate]", "values": [{"measurement": "peripheral lymphocyte count", "setting": "[1]; 1 month after completion of administration compared to during administration", "result": "significantly decreased"}, {"measurement": "peripheral lymphocyte count", "setting": "[1]; during 2 months of administration, 0.8 g per meal 3 times a day", "result": "increased significantly"}, {"measurement": "mind and body conditions such as speech recovery, expression of emotion", "setting": "[2]; almost all test subjects, 2 months after start of administration", "result": "tendency toward improvement"}, {"measurement": "Brighter facial expression: number of test subjects marked ◯", "setting": "[2]; [4]", "result": 8}, {"measurement": "Clearer articulation: number of test subjects marked ◯", "setting": "[2]; [4]", "result": 7}, {"measurement": "Eating by tightly holding a spoon: number of test subjects marked ◯", "setting": "[2]; [4]", "result": 2}, {"measurement": "Establishment of conversation: number of test subjects marked ◯", "setting": "[2]; [4]", "result": 4}, {"measurement": "Eyes can be opened wide: number of test subjects marked ◯", "setting": "[2]; [4]", "result": 6}, {"measurement": "Louder voice: number of test subjects marked ◯", "setting": "[2]; [4]", "result": 4}, {"measurement": "Outward facial expression (delight, anger, sorrow and pleasure): number of test subjects marked ◯", "setting": "[2]; [4]", "result": 6}, {"measurement": "Recognition of meal: number of test subjects marked ◯", "setting": "[2]; [4]", "result": 3}, {"measurement": "Recovery of memory: number of test subjects marked ◯", "setting": "[2]; [4]", "result": 2}, {"measurement": "Use of voice: number of test subjects marked ◯", "setting": "[2]; [4]", "result": 4}, {"measurement": "1 point for ◯, total points (scale of one to ten)", "setting": "[2]; one value per individual test subject (No. 6598, 7012, 7020, 6342, 6990, 5039, 7082, 7142, 6957, 5742, 6362), 2 months, monohydrate", "result": "7 points and 3 points (5×) and 10 points and 2 points (2×) and 6 points and 4 points"}, {"measurement": "Hasegawa Dementia Scale-Revised grade points", "setting": "[3]", "result": "grade points increased"}]}
